Data reported in PMC4840323, “Plasiatine, an Unprecedented Indole–Phenylpropanoid Hybrid from Plantago asiatica as a Potent Activator of the Nonreceptor Protein Tyrosine Phosphatase Shp2” (Scientific Reports, 2016).

Biological target: T1, Shp2 (Src homology 2-containing phosphotyrosine phosphatase 2) (Homo sapiens, UniProt Q06124)
T1 construct: gene PTPN11; GST-PTP fusion proteins of human Shp2 (residues 205–597)
T1 sequence (Q06124 205-593): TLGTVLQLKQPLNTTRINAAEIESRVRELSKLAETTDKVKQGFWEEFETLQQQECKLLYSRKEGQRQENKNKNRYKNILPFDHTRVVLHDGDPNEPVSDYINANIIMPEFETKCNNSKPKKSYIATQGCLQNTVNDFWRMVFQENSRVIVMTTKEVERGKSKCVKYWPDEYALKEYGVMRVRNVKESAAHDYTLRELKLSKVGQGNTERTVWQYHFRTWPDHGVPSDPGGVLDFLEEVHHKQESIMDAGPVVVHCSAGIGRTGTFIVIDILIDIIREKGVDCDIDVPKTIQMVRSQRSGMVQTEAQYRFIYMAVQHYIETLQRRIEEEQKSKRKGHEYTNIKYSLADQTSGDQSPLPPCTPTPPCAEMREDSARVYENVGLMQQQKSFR
Test: activation of recombinant GST-Shp2 phosphatase activity, DiFMUP fluorescence assay
Format: biochemical

EC50: 970 nM
Structure (SMILES): COc1cc([C@H]2Oc3cc4c(cc3[C@@H]2CO)NC(=O)[C@@]4(O)CC#N)ccc1O [compound 1, plasiatine]
